Experimental findings from ChEMBL document CHEMBL3507680, “University of Dundee, Gates Library screen for HepG2 cell viability” are described below.

This data set can be described thus: Human HepG2 cell viability assay in 384 well format. It is filed as toxicity, cell-based. Also on record: dose 125 nL, time 70.5 hour; concentration not given beside the values. Particulars: HepG2 cells, read-out: Inhibition.

As for `Cc1cccc(N2CCN(Cc3nc(CC4CC4)no3)CC2)n1`, the cytotoxicity at 70.5 h amounted to 1.5%. For the compound `O=C(c1ccc(-c2ccsc2)nc1)N1CCCN(C2CCCCC2)CC1`, the cytotoxicity at 70.5 h is 17%. In the case of `COc1ccc2cc(C3CN(C(=O)CN4CCCC4)CCO3)ccc2c1` (stereo not drawn) it was 2.28%; in that of `CN(Cc1cc(C2CC2)[nH]n1)C(=O)c1cnn2ccn(C)c12`, -10.4%; in that of `CC(C)(N)c1cn([C@@H]2c3ccccc3C3(CCNCC3)[C@H]2O)nn1`, -4.25%.

As for `Cc1nnnn1-c1ccc(CC(=O)N2CCOCC(O)C2)cc1` (stereo not drawn), the cytotoxicity at 70.5 h was -6.4%.

As for `COC(=O)c1ccc(CNC2CC(=O)N(Cc3cccc(F)c3)C2)cc1` (stereo not drawn), the cytotoxicity at 70.5 h came to 0.023%. With `Cc1ccccc1SC1CCN(C(=O)[C@@H]2C[C@@H](N)CN2)CC1`, the cytotoxicity at 70.5 h was -2.11%. In the case of `Cc1ccc(NCCCNC(=O)C2CC3(CCNCC3)CN2C)nc1` (stereo not drawn) it was -10.5%. In the case of `CCc1nc(CN(C)C(=O)CSC)no1` it was -11.3%; in that of `CCc1cc(N(C)CCCO)n2nccc2n1`, -4.76%.

For the compound `CSc1cccc(CN2CCC(CCC(=O)NCCN(C)C)CC2)c1`, the cytotoxicity at 70.5 h was -6.05%. In the case of `CCN(Cc1ccccn1)Cc1cc(Cl)ccc1OC` it was 2.41%; in that of `CCN(C)S(=O)(=O)NCC1CCN(Cc2ccccc2F)C1` (stereo not drawn), -10.5%; in that of `CCC1CN(C(=O)c2ccccc2N(C)C)CCN1C(C)C` (stereo not drawn), 1.87%. In the case of `COCc1cn(C2CCN(C(=O)c3ccc(F)c(C)c3)CC2)nn1` it was -6.36%.

In the case of `O=C(NCc1c(F)cccc1Cl)c1cc(CN2CCCC(O)C2)on1` (stereo not drawn), the cytotoxicity at 70.5 h is -13.8%. In the case of `O=c1cc(N2CCc3ccccc3C2)cnn1CCC1CCOC1` (stereo not drawn) it was 1.4%; in that of `COCCN(C)CC(=O)N1C[C@@H](NC(C)=O)[C@H](c2ccc(OC)cc2)C1`, -17.6%.

With `CCN(CC)C(=O)[C@@H]1C[C@H](N)CN1c1nnc(-c2ccccc2)s1`, the cytotoxicity at 70.5 h worked out at 18.2%.

For the compound `Cc1nc(C(C)NC(=O)c2cn(Cc3ccc(Cl)cc3)nn2)n[nH]1` (stereo not drawn), the cytotoxicity at 70.5 h is -1.77%. In the case of `OCCC1CN(c2nc(-c3ccncc3)nc3c2CCNCC3)CCO1` (stereo not drawn), the cytotoxicity at 70.5 h is 2.55%. In the case of `CN1CCCC(CCC(=O)N2CCc3[nH]c(-c4ccccc4)nc3C2)C1` (stereo not drawn) it was 20.8%; in that of `Cc1n[nH]c(C)c1CC(=O)N1CCN(C)C2(CCNC(=O)CC2)C1` (stereo not drawn), -4.03%; in that of `O=C1[C@@H]2CN(c3ncnc4[nH]ccc34)C[C@]2(C(=O)O)CN1CC1CC1`, -9.8%. In the case of `O=C(NCCn1cccc1)C1CCCN(C2CCCC2)C1` (stereo not drawn) it was 7.15%; in that of `CCCC(C)NCc1cccnc1N1CCN(c2ccccn2)CC1` (stereo not drawn), -5.62%.

In the case of `Cc1[nH]c(-c2ccccc2)nc1C(=O)N1CCc2[nH]cnc2C1C(=O)O` (stereo not drawn), the cytotoxicity at 70.5 h is -8.84%.

In the case of `CCCOC(=O)NCCC1CN(c2cnn(C)c(=O)c2)CCO1` (stereo not drawn), the cytotoxicity at 70.5 h was -10.5%.

As to `COCCC1(CO)CCCN(Cc2cc(C(F)(F)F)ccc2F)C1` (stereo not drawn), the cytotoxicity at 70.5 h was -1.42%.

In the case of `O=C(COc1cccc(F)c1)N1C[C@@H](CN2CCCC2)C[C@H](CO)C1`, the cytotoxicity at 70.5 h was determined as 0.446%. In the case of `COc1ccc2c(c1)OCC(CNC(=O)c1cc[nH]c1C)C2` (stereo not drawn) it was -19.4%.

Consider `CCNC(=O)[C@@H]1C[C@H](N)CN1C(=O)C1(c2ccc(OC)cc2)CCCC1`, for which the cytotoxicity at 70.5 h was -10.3%.

Regarding `CCn1cc(CN2CCC(NS(C)(=O)=O)CC2)cc1C#N`, the cytotoxicity at 70.5 h was -3.22%. In the case of `O=C(NCCCOC1CCCCC1)C1NCCc2[nH]cnc21` (stereo not drawn) it was -3.08%. `CO[C@H]1CN(Cc2c(C)ccc3ncccc23)CC[C@H]1N`: the cytotoxicity at 70.5 h amounted to 2.94%. In the case of `CCn1cnnc1Cc1nc2c([nH]1)CC(c1ccc(Cl)cc1)CNC2=O` (stereo not drawn) it was 6.53%; in that of `COc1ncc(C(=O)N2CCCC3(C=Cc4ccccc4O3)CC2)cn1` (stereo not drawn), 13.5%; in that of `COc1nc2c(cc1C(=O)N1CCCOC(CN3CCCC3)C1)CCC2` (stereo not drawn), -13.7%.

As to `Cc1ccc(C(=O)N2CCC3(CCC(=O)N(CCCO)C3)CC2)c(O)c1`, the cytotoxicity at 70.5 h was -8.79%.

With `Cc1cccnc1CCNCC1(O)CCCN(CC2CCCCC2)C1=O` (stereo not drawn), the cytotoxicity at 70.5 h came to 35.9%.

For the compound `COCc1cc(N2C[C@@H](C)[C@](O)(C3CC3)C2)ncn1`, the cytotoxicity at 70.5 h was determined as 0.518%. In the case of `COC1CCCN(CCCc2cn[nH]c2)C1` (stereo not drawn) it was 0.195%; in that of `COc1ccc(C(=O)N2CC[C@@H](N3CCC(O)CC3)[C@H](O)C2)cc1C`, -3.31%. In the case of `Cc1ccoc1C(=O)N1CCC(n2cc(-c3ccsc3)nn2)CC1` it was -12.5%; in that of `CCN(CC)CCn1cnc(-c2ccccc2)c1-c1cnn(CC)c1`, -10.7%. In the case of `CC(=O)N[C@@H]1CN(CC(=O)NCc2ccccc2C)C[C@H]1C(C)C` it was -6.75%. In the case of `C=C(C)COc1cccc(CNC(CC(C)C)c2ncnn2C)c1` (stereo not drawn), the cytotoxicity at 70.5 h was -3.16%. In the case of `COc1cccc(CN(C)Cc2[nH]c3ccccc3c2C)c1O` it was 1.38%; in that of `Cc1ccc(CN(Cc2ccncc2)C2CCN(C)CC2)s1`, 15.5%; in that of `CSc1cccc(CNC(=O)[C@H]2CNC[C@@H](C(=O)N3CCOCC3)C2)c1`, -4.8%. In the case of `NC(=O)c1csc(N2CCCC(c3nc4ccccc4[nH]3)C2)n1` (stereo not drawn) it was -2.59%; in that of `CC(C)(C)N1CC(c2ncc(-c3ccc4c(c3)OCCO4)[nH]2)CC1=O` (stereo not drawn), -2.24%; in that of `Cc1nc2c(c(N3CCC4(CCCNC4=O)C3)n1)CCC2` (stereo not drawn), -4.16%.

As for `CC(=O)N1Cc2cnc(C(C)(C)C)nc2C1`, the cytotoxicity at 70.5 h stood at 19.2%. For the compound `Cc1nnc(SCCCNC(=O)c2ccc3c(c2)OCO3)s1`, the cytotoxicity at 70.5 h was -9.91%. For the compound `O=C1C[C@H]2CC[C@@H](CN1)N2C(=O)Cc1ccsc1`, the cytotoxicity at 70.5 h is -8.54%.

Consider `CN1N=C(C(=O)N2CCCC(CCc3ccccc3)C2)CCC1=O` (stereo not drawn), for which the cytotoxicity at 70.5 h is -9.61%. In the case of `Cc1ccccc1C(=O)NC[C@@H]1CCN(C(=O)c2cscn2)C[C@H]1O` it was 18.9%. In the case of `CCCc1ccc(C(=O)N2CCc3c(nc(C)nc3N(C)C)C2)cc1` it was -0.957%. In the case of `CCOCC(=O)N1C[C@H]2CC[C@@H]1CN(C(=O)c1ccncc1)C2`, the cytotoxicity at 70.5 h is -1.67%. In the case of `CC(C)c1cc(N[C@@H](CO)C(N)=O)n2nccc2n1` it was 31.2%; in that of `CC(NC(=O)c1ccc(=O)n(C)c1)c1ccccc1-n1cccn1` (stereo not drawn), -19.9%; in that of `CCNC(=O)C1CCN(c2cc(-c3ccccc3F)nc3ccnn23)C1` (stereo not drawn), 14.5%.

As for `Cc1ccc(OC2(C(=O)O)CCN(C/C=C/c3ccco3)CC2)cn1`, the cytotoxicity at 70.5 h is -5.05%.

As for `Cc1oc(-c2ccoc2)nc1CN1CCC[C@H]1CO`, the cytotoxicity at 70.5 h is -3.95%. In the case of `O=C(C1CNCCO1)N1CCC(c2cc(N3CCCC3)ncn2)CC1` (stereo not drawn) it was 14.8%. In the case of `CC(C)Cc1nc(CN2CCc3onc(-c4cccc(F)c4)c3C2)no1` it was -2.69%. In the case of `CC(C)[C@@H]1CN(CCOc2ccc(Cl)cc2)C[C@H]1NS(C)(=O)=O` it was -3.97%; in that of `O=C(c1scc2c1OCCO2)N1CCN(Cc2cccc(F)c2)CC1`, 20.1%; in that of `CN1CCN(Cc2ccccc2Cl)CC12CCC(=O)N(CC1CC1)CC2` (stereo not drawn), 0.313%.

With `CCc1nc(CN(C)C(=O)c2cc(CN(CC)CC)c(CC)o2)no1`, the cytotoxicity at 70.5 h was -11.7%. In the case of `c1ccc(-c2ncc(CN3CCC4(CCNCC4)C3)cn2)cc1` it was -7.74%. In the case of `c1ccc(CNc2ncc(CN3CC[C@H]4CC[C@@H](C3)N4)cn2)cc1` it was 18.2%.

For `CCn1ncc(CN2CCCC(C(=O)c3ccc(Cl)cc3)C2)c1C` (stereo not drawn), the cytotoxicity at 70.5 h was -6.46%. For the compound `NC(=O)CN1CC2(CCC1=O)CCN(Cc1ccccc1F)CC2`, the cytotoxicity at 70.5 h was -5.65%. In the case of `CN(Cc1noc2c1CCCC2)C(=O)Nc1ccc2oc(=O)n(C)c2c1` it was 20.6%; in that of `CSCCCNc1ncnc2cccc(F)c12`, 23.2%.

With `CC(=O)c1cccc(OCc2cc(C(=O)N3CCCCO3)n[nH]2)c1`, the cytotoxicity at 70.5 h is -15.4%. In the case of `COc1cccc2c1OCCCN(Cc1ccc(C(N)=O)c(=O)[nH]1)C2` it was -8.27%; in that of `CCN(CC)CCn1cnc(-c2ccccc2)c1-c1ncc[nH]1`, -10.3%. As for `Cc1cc(=O)c2ccccc2n1CC1CCCN(C)C1` (stereo not drawn), the cytotoxicity at 70.5 h was found to be 31.9%.

For the compound `CCc1nc(C)c(CN2CCOC(Cc3ccccc3Cl)C2)[nH]1` (stereo not drawn), the cytotoxicity at 70.5 h was -6.82%. In the case of `CC(C)(C)c1ncc2c(n1)CN(C(=O)c1ccc(-n3cnnn3)cc1)C2` it was -3.62%; in that of `CCc1ccc2nc(-c3cnn(C)c3)cc(C(=O)N3CCCC3)c2c1`, -5.34%; in that of `CCc1ocnc1C(=O)N1CCN(c2ccc3ccccc3c2)CC1`, 4.76%. In the case of `Cc1nc(N(C)C)ncc1C(=O)N[C@@H]1CCc2ccccc21` it was -11.5%. In the case of `Cc1nnc(NC(=O)N2CCCCC2CCO)s1` (stereo not drawn) it was -0.98%; in that of `CCCn1cnnc1CN(C)C(=O)CCC(=O)Nc1cc(C)ccc1F`, -6.48%. Take `CSCCC(=O)N1CCC(c2nccn2CCN(C)C)CC1`: the cytotoxicity at 70.5 h is -2.46%. In the case of `COCc1nc(CN2C(=O)OC[C@@H]2C(C)C)no1` it was -6.26%; in that of `CCOc1ccccc1CN(CC)Cc1ccc(S(C)(=O)=O)cc1`, -5.03%; in that of `CN1CCCC(CCC(=O)N2CCc3onc(C(=O)N(C)C)c3C2)C1` (stereo not drawn), -1.71%. For the compound `CCC(CO)N(Cc1ccsc1)Cc1ccc(-c2ccn[nH]2)s1` (stereo not drawn), the cytotoxicity at 70.5 h was -5.61%. Turning to `CCn1ccnc1CNc1nccc(-c2cn(C)nc2C)n1`, the cytotoxicity at 70.5 h was -2.79%.

`COc1ccc(OC2CCN(c3ccncc3)CC2)cc1`: the cytotoxicity at 70.5 h is -3.12%.

For the compound `CC(C)=CCCC1(C)CCC(=O)N(CCc2csc(N)n2)C1` (stereo not drawn), the cytotoxicity at 70.5 h was -5.28%. In the case of `COC(=O)c1ccc(NC(=O)CNCc2ccco2)cc1` it was -5.33%.
